Test results from PubChem BioAssay AID248 (DTP/NCI, 2004).
Several values for one entry are separate records, joined by “and”; a condition that tells them apart may be missing. Equal entries are not always repeated. Inconclusive results and toxic doses are left out.

Test system: L1210 leukemia ip in BDF1 mice, survival T/C
Assay: NCI In Vivo Anticancer Drug Screen. Data for tumor model L1210 Leukemia (intraperitoneal) in B6D2F1 (BDF1) mice
Conditions: endpoint: mean survival time, higher = longer survival
Method in brief: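 Read-out is survival time, reported as the treated-group measurement over the vehicle-control measurement.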

[1] = dose: 100.0 mg/kg/injection, schedule: Q04DX002 (ip), vehicle: Klucel (hydroxypropylcellulose) (HPC)
[2] = dose: 200.0 mg/kg/injection, schedule: Q04DX002 (ip), vehicle: Klucel (hydroxypropylcellulose) (HPC)
[3] = dose: 400.0 mg/kg/injection, schedule: Q04DX002 (ip), vehicle: Klucel (hydroxypropylcellulose) (HPC)
[4] = dose: 50.0 mg/kg/injection, schedule: Q01DX009 (ip), vehicle: Klucel (hydroxypropylcellulose) (HPC)
[5] = dose: 100.0 mg/kg/injection, schedule: Q01DX009 (ip), vehicle: Klucel (hydroxypropylcellulose) (HPC)
[6] = dose: 100.0 mg/kg/injection, schedule: Q04DX002 (ip), vehicle: saline
[7] = dose: 200.0 mg/kg/injection, schedule: Q04DX002 (ip), vehicle: saline
[8] = dose: 400.0 mg/kg/injection, schedule: Q04DX002 (ip), vehicle: saline
[9] = dose: 100.0 mg/kg/injection, schedule: Q01DX009 (ip), vehicle: saline
[10] = dose: 100.0 mg/kg/injection, schedule: Q04DX003 (ip), vehicle: saline
[11] = dose: 200.0 mg/kg/injection, schedule: Q04DX003 (ip), vehicle: saline
[12] = dose: 400.0 mg/kg/injection, schedule: Q01DX009 (ip), vehicle: saline
[13] = dose: 400.0 mg/kg/injection, schedule: Q04DX003 (ip), vehicle: saline
[14] = dose: 200.0 mg/kg/injection, schedule: Q01DX009 (ip), vehicle: Klucel (hydroxypropylcellulose) (HPC)
[15] = dose: 100.0 mg/kg/injection, schedule: Q04DX003 (ip), vehicle: Klucel (hydroxypropylcellulose) (HPC)
[16] = dose: 200.0 mg/kg/injection, schedule: Q04DX003 (ip), vehicle: Klucel (hydroxypropylcellulose) (HPC)
[17] = dose: 400.0 mg/kg/injection, schedule: Q04DX003 (ip), vehicle: Klucel (hydroxypropylcellulose) (HPC)
[18] = dose: 100.0 mg/kg/injection, schedule: Q01DX001 (ip), vehicle: carboxymethylcellulose (CMC)
[19] = dose: 200.0 mg/kg/injection, schedule: Q01DX001 (ip), vehicle: carboxymethylcellulose (CMC)
[20] = dose: 400.0 mg/kg/injection, schedule: Q01DX001 (ip), vehicle: carboxymethylcellulose (CMC)
[21] = dose: 100.0 mg/kg/injection, schedule: Q01DX009 (ip), vehicle: saline with Tween-80
[22] = dose: 200.0 mg/kg/injection, schedule: Q01DX009 (ip), vehicle: saline with Tween-80
[23] = dose: 100.0 mg/kg/injection, schedule: Q04DX003 (ip), vehicle: saline with Tween-80
[24] = dose: 200.0 mg/kg/injection, schedule: Q04DX003 (ip), vehicle: saline with Tween-80
[25] = dose: 400.0 mg/kg/injection, schedule: Q04DX003 (ip), vehicle: saline with Tween-80

O=C(Nc1ccc(Cl)cc1)O/C(=C(/OC(=O)Nc1ccc(Cl)cc1)c1ccc(Cl)cc1)c1ccc(Cl)cc1
T/C [1]: 96 % of control | T/C [2]: 92 % of control | T/C [3]: 89 % of control

COC(C)CSP(SCC(C)OC)SCC(C)OC (centres undefined)
T/C (dose: 25.0 mg/kg/injection, schedule: Q01DX009 (ip), vehicle: Klucel (hydroxypropylcellulose) (HPC)): 96 % of control | T/C [4]: 99 % of control | T/C [5]: 99 % of control

C=C1c2ccccc2N(C)C1(COc1ccc(Cl)cc1)OC(=O)c1cccc(Cl)c1 (centres undefined)
T/C [6]: 88 % of control | T/C [7]: 98 % of control | T/C [8]: 98 % of control

O=S=Nc1cc(Cl)c(Cl)cc1Cl
T/C (dose: 25.0 mg/kg/injection, schedule: Q04DX002 (ip), vehicle: saline): 103 % of control | T/C (dose: 50.0 mg/kg/injection, schedule: Q04DX002 (ip), vehicle: saline): 100 % of control | T/C [6]: 95 % of control and 109 % of control

CCOC(=O)N1c2ccccc2C=CC1C#N (centres undefined)
T/C (dose: 44.0 mg/kg/injection, schedule: Q04DX003 (ip), vehicle: saline): 108 % of control | T/C (dose: 66.0 mg/kg/injection, schedule: Q04DX003 (ip), vehicle: saline): 105 % of control | T/C [9]: 93 % of control | T/C [10]: 94 % of control and 96 % of control | T/C (dose: 200.0 mg/kg/injection, schedule: Q01DX009 (ip), vehicle: saline): 100 % of control | T/C [11]: 101 % of control and 102 % of control | T/C [12]: 95 % of control | T/C [13]: 102 % of control

CCOC(=O)C1=C(O)c2ccccc2C1c1ccccc1 (centres undefined)
T/C [5]: 93 % of control | T/C [14]: 91 % of control | T/C (dose: 400.0 mg/kg/injection, schedule: Q01DX009 (ip), vehicle: Klucel (hydroxypropylcellulose) (HPC)): 93 % of control

c1ccc(Cn2ccnn2)cc1
T/C [4]: 96 % of control | T/C [5]: 92 % of control | T/C [14]: 115 % of control

C1C[S][Sn]2([S]CCO1)[S]CCOCC[S]2
T/C (dose: 12.5 mg/kg/injection, schedule: Q01DX001 (ip), vehicle: saline with Tween-80): 94 % of control | T/C (dose: 25.0 mg/kg/injection, schedule: Q01DX001 (ip), vehicle: saline with Tween-80): 106 % of control | T/C (dose: 50.0 mg/kg/injection, schedule: Q01DX001 (ip), vehicle: saline with Tween-80): 87 % of control

O=C(Nc1ccccc1)c1ccccc1
T/C [15]: 97 % of control | T/C [16]: 94 % of control | T/C [17]: 103 % of control

CCCCCCP(=O)(CCCCCC)CCCCCC
T/C (dose: 44.0 mg/kg/injection, schedule: Q01DX Z (ip), vehicle: methylcellulose (MC)): 89 % of control | T/C (dose: 55.0 mg/kg/injection, schedule: Q01DX Z (ip), vehicle: methylcellulose (MC)): 161 % of control | T/C (dose: 66.0 mg/kg/injection, schedule: Q01DX Z (ip), vehicle: methylcellulose (MC)): 93 % of control | T/C (dose: 83.0 mg/kg/injection, schedule: Q01DX Z (ip), vehicle: methylcellulose (MC)): 172 % of control | T/C (dose: 100.0 mg/kg/injection, schedule: Q01DX Z (ip), vehicle: methylcellulose (MC)): 96 % of control | T/C [15]: 97 % of control | T/C [16]: 110 % of control | T/C [17]: 90 % of control

CCC(C)Nc1ccc(NS(=O)(=O)CCl)cc1 (centres undefined)
T/C (dose: 25.0 mg/kg/injection, schedule: Q04DX002 (ip), vehicle: saline with Tween-80): 97 % of control | T/C (dose: 50.0 mg/kg/injection, schedule: Q04DX002 (ip), vehicle: saline with Tween-80): 106 % of control | T/C (dose: 100.0 mg/kg/injection, schedule: Q04DX002 (ip), vehicle: saline with Tween-80): 100 % of control

C=C1C[C@]23C[C@H](O)[C@]4(O)[C@@]5(C)C[C@H](O)C[C@]46C(C2[C@@H]1[C@@H](OC(=O)/C(C)=C/C)[C@@H](OC(=O)/C(C)=C/C)[C@H]36)N(C)C5 (some centres undefined)
T/C (dose: 50.0 mg/kg/injection, schedule: Q01DX001 (ip), vehicle: carboxymethylcellulose (CMC)): 95 % of control | T/C [18]: 106 % of control | T/C [19]: 106 % of control | T/C [20]: 114 % of control

NCC(=O)c1ccc(O)c(O)c1
T/C (dose: 100.0 mg/kg/injection, schedule: Q01DX001 (ip), vehicle: saline): 101 % of control | T/C [9]: 122 % of control | T/C [10]: 97 % of control | T/C (dose: 175.0 mg/kg/injection, schedule: Q01DX Z (ip), vehicle: methylcellulose (MC)): 115 % of control | T/C (dose: 200.0 mg/kg/injection, schedule: Q01DX001 (ip), vehicle: saline): 93 % of control | T/C [11]: 97 % of control | T/C (dose: 260.0 mg/kg/injection, schedule: Q01DX Z (ip), vehicle: carboxymethylcellulose (CMC)): 112 % of control | T/C (dose: 260.0 mg/kg/injection, schedule: Q01DX Z (ip), vehicle: methylcellulose (MC)): 121 % of control | T/C (dose: 270.0 mg/kg/injection, schedule: Q01DX Z (ip), vehicle: methylcellulose (MC)): 117 % of control | T/C (dose: 400.0 mg/kg/injection, schedule: Q01DX001 (ip), vehicle: saline): 104 % of control | T/C [12]: 124 % of control | T/C (dose: 400.0 mg/kg/injection, schedule: Q01DX Z (ip), vehicle: methylcellulose (MC)): 112 % of control | T/C [13]: 95 % of control | T/C (dose: 600.0 mg/kg/injection, schedule: Q01DX Z (ip), vehicle: carboxymethylcellulose (CMC)): 116 % of control | T/C (dose: 600.0 mg/kg/injection, schedule: Q01DX Z (ip), vehicle: methylcellulose (MC)): 114 % of control | T/C (dose: 1344.0 mg/kg/injection, schedule: Q01DX Z (ip), vehicle: carboxymethylcellulose (CMC)): 92 % of control

Clc1c(Cl)c(Cl)c(C(c2c(Cl)c(Cl)c(Cl)c(Cl)c2Cl)c2c(Cl)c(Cl)c(Cl)c(Cl)c2Cl)c(Cl)c1Cl
T/C [21]: 97 % of control | T/C [22]: 93 % of control | T/C (dose: 400.0 mg/kg/injection, schedule: Q01DX009 (ip), vehicle: saline with Tween-80): 89 % of control

COc1ccc([N+](=O)[O-])cc1CNCCCl
T/C (dose: 100.0 mg/kg/injection, schedule: Q01DX001 (ip), vehicle: Klucel (hydroxypropylcellulose) (HPC)): 100 % of control | T/C (dose: 400.0 mg/kg/injection, schedule: Q01DX001 (ip), vehicle: Klucel (hydroxypropylcellulose) (HPC)): 94 % of control

O=[N+]([O-])c1ccc(SCc2ccc(Br)cc2)c([N+](=O)[O-])c1
T/C [18]: 98 % of control | T/C [19]: 104 % of control | T/C [20]: 95 % of control

CCOC(=O)CCC(NC(=O)c1ccc(NC)c([N+](=O)[O-])c1)C(=O)OCC (centres undefined)
T/C [15]: 98 % of control | T/C [16]: 100 % of control | T/C [17]: 96 % of control

COC(=O)C1CCCN1C(=O)C(C)=O (centres undefined)
T/C [6]: 102 % of control | T/C [7]: 94 % of control | T/C [8]: 113 % of control

O=C1CC(=O)NC(=S)N1
T/C [23]: 101 % of control | T/C [24]: 93 % of control | T/C [25]: 93 % of control

CCOC(=O)CCC(NC(=O)c1ccc(N(C)C(=O)OCc2ccccc2)cc1)C(=O)OCC (centres undefined)
T/C [19]: 100 % of control | T/C [20]: 94 % of control

CC(=O)Oc1ccc2c(c1)C(=O)CCCC2
T/C (dose: 50.0 mg/kg/injection, schedule: Q01DX009 (ip), vehicle: saline with Tween-80): 88 % of control | T/C [21]: 88 % of control | T/C [22]: 88 % of control

CCCC(C)(C)C(=O)Nc1cccc(O)c1
T/C [23]: 95 % of control | T/C [24]: 95 % of control | T/C [25]: 92 % of control

NC(=S)c1cccc(OCCc2ccccc2)c1
T/C (dose: 100.0 mg/kg/injection, schedule: Q01DX001 (ip), vehicle: saline with Tween-80): 97 % of control | T/C (dose: 200.0 mg/kg/injection, schedule: Q01DX001 (ip), vehicle: saline with Tween-80): 102 % of control

CC(=O)OCCc1ccccc1C
T/C [1]: 112 % of control | T/C [2]: 104 % of control | T/C [3]: 101 % of control

O=C(COc1ccc(Cl)c(Cl)c1)Nc1ccc[n+](Cc2ccccc2S(=O)(=O)F)c1
T/C [23]: 96 % of control
